Where two headings read alike, the source gives them in different places. Starred links: 1 amine or outer side, 2 acyl side, 3 side chain; linkers in the order of their positions; H or OH if unused. Non-standard residues stand in square brackets, D forms with d. Residues, ends and D or L forms follow the SMILES beside them. Groups on a side chain read outwards from the residue. *: point of attachment. C18 diacid = O=C(O)CCCCCCCCCCCCCCCCC(=O)*; γGlu = O=C(O)[C@H](CCC(=O)[*:2])N[*:1]; αMeF = C[C@](N)(Cc1ccccc1)C(=O)O; AEEA = NCCOCCOCC(=O)O; Aib = CC(C)(N)C(=O)O
How the values were obtained:
[1] = target: human GLP-1 receptor (hGLP-1R) (Homo sapiens, UniProt P43220); assay: cAMP production (HTRF) in CHO cells expressing hGLP-1R; format: cell-based; set-up: expressed in transfected cells; conditions: for EC50: Table 6, peptides modified at position 17, cAMP in CHO hGLP-1R cells, geometric mean; for % Relative Potency Ratio: Table 6, % GLP-1R activity relative to GLP-1 / % GlucR activity relative to glucagon
Procedure, shortened: (§1)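 Read-out: HTRF cAMP (anti-cAMP cryptate donor, cAMP-d2 acceptor in conjugate/lysis buffer), converted to % Delta F and fitted by 4-parameter logistic for EC50. Cell densities were 1×10^5 cells/mL (hGLP-1R) or 2×10^5 cells/mL (hGCGR). Stimulation lasted 30 min at room temperature.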

[2] = target: human glucagon receptor (hGCGR) (Homo sapiens, UniProt P47871); assay: cAMP production (HTRF) in CHO cells expressing hGCGR; format: cell-based; set-up: expressed in transfected cells; conditions: Table 6, peptides modified at position 17, cAMP in CHO hGCGR cells, geometric mean
Procedure, shortened: as §1

Sequence of human glucagon receptor (hGCGR) (P47871 26-477): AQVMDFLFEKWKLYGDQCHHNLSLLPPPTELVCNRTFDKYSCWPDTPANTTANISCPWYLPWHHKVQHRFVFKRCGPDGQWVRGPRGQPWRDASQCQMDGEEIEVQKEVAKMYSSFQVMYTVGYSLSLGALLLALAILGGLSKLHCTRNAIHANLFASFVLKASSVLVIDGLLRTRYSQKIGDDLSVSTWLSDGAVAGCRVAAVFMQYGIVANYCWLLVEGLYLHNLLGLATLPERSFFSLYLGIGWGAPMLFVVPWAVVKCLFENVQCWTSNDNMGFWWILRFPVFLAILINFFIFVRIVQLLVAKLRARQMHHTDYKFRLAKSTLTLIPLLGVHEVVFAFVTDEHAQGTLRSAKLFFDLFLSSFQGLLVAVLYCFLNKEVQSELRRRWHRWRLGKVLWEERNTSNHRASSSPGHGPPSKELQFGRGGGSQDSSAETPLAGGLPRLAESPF
Sequence of human GLP-1 receptor (hGLP-1R) (P43220 24-463): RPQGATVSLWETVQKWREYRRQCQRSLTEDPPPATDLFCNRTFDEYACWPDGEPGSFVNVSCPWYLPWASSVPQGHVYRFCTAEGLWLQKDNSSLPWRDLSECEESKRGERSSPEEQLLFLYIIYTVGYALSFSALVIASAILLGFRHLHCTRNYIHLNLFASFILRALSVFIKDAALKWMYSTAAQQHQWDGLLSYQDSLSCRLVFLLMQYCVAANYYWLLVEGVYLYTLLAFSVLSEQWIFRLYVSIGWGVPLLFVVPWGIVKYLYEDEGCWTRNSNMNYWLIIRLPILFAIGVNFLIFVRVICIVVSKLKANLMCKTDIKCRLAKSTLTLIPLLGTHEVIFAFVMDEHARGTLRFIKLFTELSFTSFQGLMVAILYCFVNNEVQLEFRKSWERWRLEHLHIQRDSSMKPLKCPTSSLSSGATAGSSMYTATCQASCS

| EC50 ([1]; read-out: hGLP-1R EC50) | % Relative Potency Ratio [1] | EC50 ([2]; read-out: hGluc-R EC50) | Compound | EC50 ([1]; hGLP-1R EC50 (pM)) | EC50 ([2]; hGluc-R EC50 (pM)) |
| --- | --- | --- | --- | --- | --- |
| 48 pM | 11.1 | 270 pM | CC(C)C[C@H](NC(=O)[C@H](Cc1c[nH]c2ccccc12)NC(=O)[C@H](CCCNC(=N)N)NC(=O)[C@@H](NC(=O)[C@H](Cc1ccccc1)NC(=O)[C@H](CC(=O)O)NC(=O)[C@H](CCCNC(=N)N)NC(=O)[C@H](C)NC(=O)[C@H](CCCNC(=N)N)NC(=O)[C@H](CCCCNC(=O)COCCOCCNC(=O)COCCOCCNC(=O)CC[C@H](NC(=O)CCCCCCCCCCCCCCCCC(=O)O)C(=O)O)NC(=O)[C@H](CO)NC(=O)[C@H](CC(=O)O)NC(=O)[C@H](CC(C)C)NC(=O)[C@](C)(Cc1ccccc1)NC(=O)[C@H](CCCCN)NC(=O)[C@H](CO)NC(=O)[C@@H](NC(=O)[C@H](CC(=O)O)NC(=O)[C@H](CO)NC(=O)[C@@H](NC(=O)[C@H](Cc1ccccc1)NC(=O)[C@@H](NC(=O)CNC(=O)[C@H](CCC(N)=O)NC(=O)C(C)(C)NC(=O)[C@@H](N)Cc1c[nH]cn1)[C@@H](C)O)[C@@H](C)O)C(C)C)C(C)C)C(=O)N[C@@H](CC(C)C)C(=O)NC(C)(C)C(=O)N[C@H](C(=O)N[C@@H](CCC(=O)O)C(=O)O)[C@@H](C)O [Peptide 166] (H-H[Aib]QGTFTSDVSK[αMeF]LDSK([AEEA-AEEA-γGlu-C18 diacid])RARDFVRWLL[Aib]TE-OH; N-terminus assumed) |  |  |
| 76.8 pM | 8.0 | 311 pM | CC(C)C[C@H](NC(=O)[C@H](Cc1c[nH]c2ccccc12)NC(=O)[C@H](C)NC(=O)[C@@H](NC(=O)[C@H](Cc1ccccc1)NC(=O)[C@H](CC(=O)O)NC(=O)[C@H](CCCNC(=N)N)NC(=O)[C@H](C)NC(=O)[C@H](CCCNC(=N)N)NC(=O)[C@H](CCCCNC(=O)COCCOCCNC(=O)COCCOCCNC(=O)CC[C@H](NC(=O)CCCCCCCCCCCCCCCCC(=O)O)C(=O)O)NC(=O)[C@H](CO)NC(=O)[C@H](CC(=O)O)NC(=O)[C@H](CC(C)C)NC(=O)[C@](C)(Cc1ccccc1)NC(=O)[C@H](CCCCN)NC(=O)[C@H](CO)NC(=O)[C@@H](NC(=O)[C@H](CC(=O)O)NC(=O)[C@H](CO)NC(=O)[C@@H](NC(=O)[C@H](Cc1ccccc1)NC(=O)[C@@H](NC(=O)CNC(=O)[C@H](CCC(N)=O)NC(=O)C(C)(C)NC(=O)[C@@H](N)Cc1c[nH]cn1)[C@@H](C)O)[C@@H](C)O)C(C)C)C(C)C)C(=O)N[C@@H](CC(C)C)C(=O)NC(C)(C)C(=O)N[C@H](C(=O)N[C@@H](CCC(=O)O)C(=O)O)[C@@H](C)O [Peptide 167] (H-H[Aib]QGTFTSDVSK[αMeF]LDSK([AEEA-AEEA-γGlu-C18 diacid])RARDFVAWLL[Aib]TE-OH; N-terminus assumed) |  |  |
| 448 pM | 3.9 | 886 pM | CC(C)C[C@H](NC(=O)[C@H](C)NC(=O)[C@H](CCCNC(=N)N)NC(=O)[C@H](CCCCNC(=O)COCCOCCNC(=O)COCCOCCNC(=O)CC[C@H](NC(=O)CCCCCCCCCCCCCCCCC(=O)O)C(=O)O)NC(=O)[C@H](CO)NC(=O)[C@H](CC(=O)O)NC(=O)[C@H](CC(C)C)NC(=O)[C@](C)(Cc1ccccc1)NC(=O)[C@H](CCCCN)NC(=O)[C@H](CO)NC(=O)[C@@H](NC(=O)[C@H](CC(=O)O)NC(=O)[C@H](CO)NC(=O)[C@@H](NC(=O)[C@H](Cc1ccccc1)NC(=O)[C@@H](NC(=O)CNC(=O)[C@H](CCC(N)=O)NC(=O)C(C)(C)NC(=O)[C@@H](N)Cc1c[nH]cn1)[C@@H](C)O)[C@@H](C)O)C(C)C)C(=O)N[C@@H](CC(=O)O)C(=O)N[C@@H](Cc1ccccc1)C(=O)N[C@H](C(=O)N[C@@H](CCCNC(=N)N)C(=O)N[C@@H](Cc1c[nH]c2ccccc12)C(=O)N[C@@H](CC(C)C)C(=O)N[C@@H](CC(C)C)C(=O)NC(C)(C)C(=O)N[C@H](C(=O)N[C@@H](CCC(=O)O)C(=O)O)[C@@H](C)O)C(C)C [Peptide 168] (H-H[Aib]QGTFTSDVSK[αMeF]LDSK([AEEA-AEEA-γGlu-C18 diacid])RALDFVRWLL[Aib]TE-OH; N-terminus assumed) |  |  |
|  |  |  | CC(C)C[C@H](NC(=O)[C@H](CCC(=O)O)NC(=O)[C@H](CC(C)C)NC(=O)[C@](C)(Cc1ccccc1)NC(=O)[C@H](CCCCN)NC(=O)[C@H](CO)NC(=O)[C@@H](NC(=O)[C@H](CC(=O)O)NC(=O)[C@H](CO)NC(=O)[C@@H](NC(=O)[C@H](Cc1ccccc1)NC(=O)[C@@H](NC(=O)CNC(=O)[C@H](CCC(N)=O)NC(=O)C(C)(C)NC(=O)[C@@H](N)Cc1c[nH]cn1)[C@@H](C)O)[C@@H](C)O)C(C)C)C(=O)N[C@@H](CCCCNC(=O)COCCOCCNC(=O)COCCOCCNC(=O)CC[C@H](NC(=O)CCCCCCCCCCCCCCCCC(=O)O)C(=O)O)C(=O)N[C@@H](CCCNC(=N)N)C(=O)N[C@@H](C)C(=O)N[C@@H](CCC(N)=O)C(=O)N[C@@H](CC(=O)O)C(=O)N[C@@H](Cc1ccccc1)C(=O)N[C@H](C(=O)N[C@@H](CCCNC(=N)N)C(=O)N[C@@H](Cc1c[nH]c2ccccc12)C(=O)N[C@@H](CC(C)C)C(=O)N[C@@H](CC(C)C)C(=O)NC(C)(C)C(=O)N[C@H](C(=O)N[C@@H](CCC(=O)O)C(=O)O)[C@@H](C)O)C(C)C [Peptide 169] (H-H[Aib]QGTFTSDVSK[αMeF]LELK([AEEA-AEEA-γGlu-C18 diacid])RAQDFVRWLL[Aib]TE-OH; N-terminus assumed) | 210 pM | 1400 pM |
| 148 pM | 11.2 | 836 pM | CC(C)C[C@H](NC(=O)[C@H](Cc1c[nH]c2ccccc12)NC(=O)[C@H](CCCNC(=N)N)NC(=O)[C@@H](NC(=O)[C@H](Cc1ccccc1)NC(=O)[C@H](CC(=O)O)NC(=O)[C@H](CCC(N)=O)NC(=O)[C@H](C)NC(=O)[C@H](CCCNC(=N)N)NC(=O)[C@H](CCCCNC(=O)COCCOCCNC(=O)COCCOCCNC(=O)CC[C@H](NC(=O)CCCCCCCCCCCCCCCCC(=O)O)C(=O)O)NC(=O)[C@H](CCC(=O)O)NC(=O)[C@H](CC(=O)O)NC(=O)[C@H](CC(C)C)NC(=O)[C@](C)(Cc1ccccc1)NC(=O)[C@H](CCCCN)NC(=O)[C@H](CO)NC(=O)[C@@H](NC(=O)[C@H](CC(=O)O)NC(=O)[C@H](CO)NC(=O)[C@@H](NC(=O)[C@H](Cc1ccccc1)NC(=O)[C@@H](NC(=O)CNC(=O)[C@H](CCC(N)=O)NC(=O)C(C)(C)NC(=O)[C@@H](N)Cc1c[nH]cn1)[C@@H](C)O)[C@@H](C)O)C(C)C)C(C)C)C(=O)N[C@@H](CC(C)C)C(=O)NC(C)(C)C(=O)N[C@H](C(=O)N[C@@H](CCC(=O)O)C(=O)O)[C@@H](C)O [Peptide 170] (H-H[Aib]QGTFTSDVSK[αMeF]LDEK([AEEA-AEEA-γGlu-C18 diacid])RAQDFVRWLL[Aib]TE-OH; N-terminus assumed) |  |  |
| 107 pM | 7.0 | 376 pM | CC(C)C[C@H](NC(=O)[C@H](Cc1c[nH]c2ccccc12)NC(=O)[C@H](CCCNC(=N)N)NC(=O)[C@@H](NC(=O)[C@H](Cc1ccccc1)NC(=O)[C@H](CC(=O)O)NC(=O)[C@H](CCC(N)=O)NC(=O)[C@H](C)NC(=O)[C@H](CCCNC(=N)N)NC(=O)[C@H](CCCCNC(=O)COCCOCCNC(=O)COCCOCCNC(=O)CC[C@H](NC(=O)CCCCCCCCCCCCCCCCC(=O)O)C(=O)O)NC(=O)[C@H](CO)NC(=O)[C@H](CC(=O)O)NC(=O)[C@H](CC(C)C)NC(=O)[C@](C)(Cc1ccccc1)NC(=O)[C@H](CCCCN)NC(=O)[C@H](CO)NC(=O)[C@@H](NC(=O)[C@H](CC(=O)O)NC(=O)[C@H](CO)NC(=O)[C@@H](NC(=O)[C@H](Cc1ccccc1)NC(=O)[C@@H](NC(=O)CNC(=O)[C@H](CCC(N)=O)NC(=O)C(C)(C)NC(=O)[C@@H](N)Cc1c[nH]cn1)[C@@H](C)O)[C@@H](C)O)C(C)C)C(C)C)C(=O)N[C@@H](CCC(=O)O)C(=O)NC(C)(C)C(=O)N[C@H](C(=O)N[C@@H](CCC(=O)O)C(=O)O)[C@@H](C)O [Peptide 171] (H-H[Aib]QGTFTSDVSK[αMeF]LDSK([AEEA-AEEA-γGlu-C18 diacid])RAQDFVRWLE[Aib]TE-OH; N-terminus assumed) |  |  |
| 213 pM | 11.8 | 1270 pM | CC(C)C[C@H](NC(=O)[C@H](Cc1c[nH]c2ccccc12)NC(=O)[C@H](CCCNC(=N)N)NC(=O)[C@@H](NC(=O)[C@H](Cc1ccccc1)NC(=O)[C@H](CC(=O)O)NC(=O)[C@H](CCC(N)=O)NC(=O)[C@H](C)NC(=O)[C@H](CCCNC(=N)N)NC(=O)[C@H](CCCCNC(=O)COCCOCCNC(=O)COCCOCCNC(=O)CC[C@H](NC(=O)CCCCCCCCCCCCCCCCC(=O)O)C(=O)O)NC(=O)[C@H](CO)NC(=O)[C@H](CCC(=O)O)NC(=O)[C@H](CC(C)C)NC(=O)[C@](C)(Cc1ccccc1)NC(=O)[C@H](CCCCN)NC(=O)[C@H](CO)NC(=O)[C@@H](NC(=O)[C@H](CC(=O)O)NC(=O)[C@H](CO)NC(=O)[C@@H](NC(=O)[C@H](Cc1ccccc1)NC(=O)[C@@H](NC(=O)CNC(=O)[C@H](CCC(N)=O)NC(=O)C(C)(C)NC(=O)[C@@H](N)Cc1c[nH]cn1)[C@@H](C)O)[C@@H](C)O)C(C)C)C(C)C)C(=O)N[C@@H](CC(C)C)C(=O)NC(C)(C)C(=O)N[C@H](C(=O)N[C@@H](CCC(=O)O)C(=O)O)[C@@H](C)O [Peptide 172] (H-H[Aib]QGTFTSDVSK[αMeF]LESK([AEEA-AEEA-γGlu-C18 diacid])RAQDFVRWLL[Aib]TE-OH; N-terminus assumed) |  |  |

— patent publication US20250353891A1 (MEDIMMUNE LIMITED, priority 2022, published 2025)
